# “Also recorded” adds a separate entry of the source.
# Tests used:
# Nef/CNX interaction = molecular target: T1, Nef/CNX interaction (Human immunodeficiency virus type 1 group M subtype B, UniProt P03406); assay: Co-immunoprecipitation of Nef and calnexin in transfected HEK293T cells; type: cell-based, HIV-1; conditions: for inhibition of co-immunoprecipitation of Nef and calnexin: added 6 h post-transfection, lysed 48 h post-transfection, HEK293T
# T1 construct: expressed in transfected cells; host or cells: HEK293T
# Experimental: (§1) To test whether the compounds identified in the virtual screen can interfere with Nef/CNX interaction, a co-immunoprecipitation assay was performed. HEK293T cells were transfected with plasmid encoding for NefBRU and 6 h post-transfection were treated with NSC 1758 (4 μM), NSC 13987 (5 μM), or NSC 92938 (5 μM). These concentrations of the compounds were determined by the MTT assay to reduce cell metabolism by less than 10% during 5-day incubation (FIG. 6C). […] It was previously shown that membrane localization of Nef is important for interaction of Nef with calnexin (5). In order to rule out the possibility that the compound interferes with membrane localization of Nef, it was tested whether NSC 13987 affects interaction between Nef and ABCA1, as ABCA1/Nef interaction also requires membrane localization of Nef (1).
# Their overall location in the structural alignment with the model of Nef-CNX complex is shown as translucent molecular surface. […] The set of compounds includes NSC 1758, NSC 13987, and NSC 92938 selected for experimental testing. b, Compound NSC 13987 docked to Nef binding site, which is centered on Lys4 and Lys7. Interactions of the compound with Nef include two hydrogen bonds with Nef amino acid residues Ser6 and Tyr124. […] THP-1 cells were treated with indicated compounds for 5 days and cytotoxicity was measured using MTT assay. In panel (D), HEK 293T cells were transfected with HA-tagged Nef, treated with compounds NSC 1758, NSC 13987 or NSC 92938, and lysed. Nef was immunoprecipitated using anti-HA agarose beads and bound complexes were immunoblotted for Nef and calnexin (left panels labeled IP: aIIA). Densitometric quantification of calnexin co-immunoprecipitation with Nef is presented in the right panel. Error bars indicate +/−SD of 3 independent experiments, and p values are shown above the bars. Whole cell lysates were analyzed for amount of calnexin, Nef and GAPDH (left panels labeled Lysate). In panel (E), HEK293T cells were co-transfected with ABCA1-FLAG and NefBRU and treated with compound NSC 13987. Cells were lysed 48 h post-transfection and ABCA1-FLAG was immunoprecipitated using anti-FLAG beads. Precipitated complexes were blotted for ABCA1 and Nef (top panels). Input amount was analyzed from whole cell lysates by immunoblotting for ABCA1, Nef and GAPDH (bottom panels).
# Immunoprecipitation—For calnexin mutant/Nef interaction analysis, HEK293T cells were transfected with HA-tagged calnexin mutants and NefBRU expression plasmid. Cells were lysed 48 h post-transfection with 1% IGEPAL and 0.1% SDS lysis buffer on ice for 30 min. Lysates were incubated with anti-HA agarose beads for 2 h at 4° C. with rotation. Respective immunoprecipitates were washed three times with TBS (150 mM NaCl, 30 mM Tris-HCl, 5 mM EDTA, pH 7.5). […]
# [1] = tested on: THP-1 cells transfected with Nef; assay: apoA-I specific cholesterol efflux in Nef-transfected THP-1 cells; type: cell-based; conditions: THP-1, PMA-activated, compared to DMSO-treated Nef expressing cells
# Experimental: Next, it was tested whether the three compounds could prevent impairment of cholesterol efflux by Nef. THP-1 cells were transfected with a Nef encoding plasmid and drug treatment was started 6 h after transfection. The following day cells were activated with PMA after which cholesterol efflux assay was performed. Drug treatment was continued throughout the duration of the experiment. […] Cholesterol efflux in Nef-transfected untreated or DMSO-treated cells was reduced by over 2-fold relative to mock-transfected cells.
# Specifically, in panel (A) THP-1 cells were transfected with Nef and incubated with compounds NSC 1758, NSC 13987 and NSC 92938 or DMSO, and cholesterol efflux was measured 5 days post-transfection. Error bars show SEM. In panel (B) primary macrophages were infected in triplicate with HIV-1 ADA. Compound NSC 13987 (5 μM) or DMSO was added 3 days after infection and maintained thereafter, and virus replication was monitored by measuring RT-activity in the supernatant over a 14-day period. […] In panel (C) primary macrophages were infected with HIV-1 ADA or mock-infected and treated with DMSO or NSC13987 as in panel B. Cholesterol efflux was measured 14 days post-infection. […]
# (§2) Cholesterol Efflux—Infected cells were seeded in a 24-well plate and labeled with [^3H] cholesterol for 48 h. […] Level of radioactivity in the media as well as in the cells was determined by scintillation counting. […]
# ABCA1/Nef interaction = molecular target: T2, ABCA1/Nef interaction (Human immunodeficiency virus type 1 group M subtype B, UniProt P03406); assay: Co-immunoprecipitation of ABCA1-FLAG and Nef in HEK293T cells; type: cell-based, HIV-1; conditions: HEK293T co-transfected with ABCA1-FLAG and NefBRU, lysed 48 h post-transfection
# T2 construct: expressed in transfected cells; host or cells: HEK293T
# T2 sequence (O95477 whole entry, other chains not shown): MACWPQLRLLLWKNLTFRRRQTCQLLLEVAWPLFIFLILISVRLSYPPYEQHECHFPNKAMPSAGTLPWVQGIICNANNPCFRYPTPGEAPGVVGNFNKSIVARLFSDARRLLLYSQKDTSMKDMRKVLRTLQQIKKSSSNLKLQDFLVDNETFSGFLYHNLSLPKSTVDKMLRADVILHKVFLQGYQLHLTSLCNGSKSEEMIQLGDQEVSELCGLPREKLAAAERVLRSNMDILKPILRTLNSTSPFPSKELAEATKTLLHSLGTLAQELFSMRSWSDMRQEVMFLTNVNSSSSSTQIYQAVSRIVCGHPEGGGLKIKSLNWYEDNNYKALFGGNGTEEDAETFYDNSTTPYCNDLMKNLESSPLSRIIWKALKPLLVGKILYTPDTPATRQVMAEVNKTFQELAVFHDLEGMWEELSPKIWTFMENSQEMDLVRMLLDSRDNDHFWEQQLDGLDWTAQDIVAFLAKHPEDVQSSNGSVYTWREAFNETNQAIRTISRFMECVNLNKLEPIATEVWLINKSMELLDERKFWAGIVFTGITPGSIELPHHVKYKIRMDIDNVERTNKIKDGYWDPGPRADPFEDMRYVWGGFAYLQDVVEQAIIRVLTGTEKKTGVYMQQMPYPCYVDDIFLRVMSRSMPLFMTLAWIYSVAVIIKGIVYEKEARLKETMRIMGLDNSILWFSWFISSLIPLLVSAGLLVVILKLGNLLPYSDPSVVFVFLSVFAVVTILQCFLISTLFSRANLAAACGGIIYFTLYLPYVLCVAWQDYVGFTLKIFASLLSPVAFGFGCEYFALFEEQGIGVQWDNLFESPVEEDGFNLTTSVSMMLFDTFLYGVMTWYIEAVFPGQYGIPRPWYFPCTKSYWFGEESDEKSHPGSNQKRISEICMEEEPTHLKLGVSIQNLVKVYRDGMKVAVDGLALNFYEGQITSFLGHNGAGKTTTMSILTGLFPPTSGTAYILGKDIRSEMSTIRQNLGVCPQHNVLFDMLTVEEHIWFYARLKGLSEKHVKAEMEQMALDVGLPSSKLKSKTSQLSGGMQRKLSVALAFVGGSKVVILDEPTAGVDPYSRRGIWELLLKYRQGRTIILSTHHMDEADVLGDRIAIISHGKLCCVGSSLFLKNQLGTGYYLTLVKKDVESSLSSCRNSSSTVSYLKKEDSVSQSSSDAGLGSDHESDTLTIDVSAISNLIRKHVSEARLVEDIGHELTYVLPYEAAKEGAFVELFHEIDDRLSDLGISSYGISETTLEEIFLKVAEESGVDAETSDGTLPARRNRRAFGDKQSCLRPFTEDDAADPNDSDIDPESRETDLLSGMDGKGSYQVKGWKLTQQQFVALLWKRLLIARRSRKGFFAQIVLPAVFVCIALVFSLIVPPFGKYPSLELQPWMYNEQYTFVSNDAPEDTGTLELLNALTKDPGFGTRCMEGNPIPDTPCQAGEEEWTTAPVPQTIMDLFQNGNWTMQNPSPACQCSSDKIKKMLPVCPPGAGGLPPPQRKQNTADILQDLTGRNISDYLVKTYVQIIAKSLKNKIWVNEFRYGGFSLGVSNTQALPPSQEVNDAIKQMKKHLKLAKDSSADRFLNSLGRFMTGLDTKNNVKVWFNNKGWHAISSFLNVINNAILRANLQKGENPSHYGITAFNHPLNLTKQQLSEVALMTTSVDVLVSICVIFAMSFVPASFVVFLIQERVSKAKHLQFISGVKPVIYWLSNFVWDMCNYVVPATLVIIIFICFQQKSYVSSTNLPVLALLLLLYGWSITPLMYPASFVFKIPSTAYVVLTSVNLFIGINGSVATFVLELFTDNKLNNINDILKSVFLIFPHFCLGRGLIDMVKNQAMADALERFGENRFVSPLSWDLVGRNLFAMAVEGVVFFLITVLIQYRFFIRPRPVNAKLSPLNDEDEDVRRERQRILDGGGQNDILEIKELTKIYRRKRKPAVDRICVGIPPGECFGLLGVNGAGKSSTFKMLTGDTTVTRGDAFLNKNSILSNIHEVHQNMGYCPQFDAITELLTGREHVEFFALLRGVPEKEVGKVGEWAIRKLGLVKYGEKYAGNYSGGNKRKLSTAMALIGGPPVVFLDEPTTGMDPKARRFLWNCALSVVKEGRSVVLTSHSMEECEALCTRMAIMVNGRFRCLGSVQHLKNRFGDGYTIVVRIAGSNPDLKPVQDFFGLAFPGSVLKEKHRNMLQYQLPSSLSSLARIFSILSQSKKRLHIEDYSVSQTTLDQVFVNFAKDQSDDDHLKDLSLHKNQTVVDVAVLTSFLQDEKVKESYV
# Experimental: as §1
# Their overall location in the structural alignment with the model of Nef-CNX complex is shown as translucent molecular surface. […] THP-1 cells were treated with indicated compounds for 5 days and cytotoxicity was measured using MTT assay. […] Densitometric quantification of calnexin co-immunoprecipitation with Nef is presented in the right panel. […] Whole cell lysates were analyzed for amount of calnexin, Nef and GAPDH (left panels labeled Lysate). […] Input amount was analyzed from whole cell lysates by immunoblotting for ABCA1, Nef and GAPDH (bottom panels).
# [2] = tested on: monocyte-derived macrophages (MDM) infected with HIV-1 ADA; assay: Cholesterol efflux from HIV-1 ADA infected monocyte-derived macrophages; type: cell-based; conditions: 14 days post-infection, versus mock-infected cells
# Experimental: (§3) To test the effect of NSC 13987 in the context of natural infection, monocyte-derived macrophages (MDM) were infected with HIV-1 ADA, treated with NSC 13987 and cholesterol efflux was measured.
# (§4) Specifically, in panel (A) THP-1 cells were transfected with Nef and incubated with compounds NSC 1758, NSC 13987 and NSC 92938 or DMSO, and cholesterol efflux was measured 5 days post-transfection. Error bars show SEM. In panel (B) primary macrophages were infected in triplicate with HIV-1 ADA. Compound NSC 13987 (5 μM) or DMSO was added 3 days after infection and maintained thereafter, and virus replication was monitored by measuring RT-activity in the supernatant over a 14-day period. Results of 3 measurements are shown as mean ±SEM. *, p<0.005; **, p<0.007. In panel (C) primary macrophages were infected with HIV-1 ADA or mock-infected and treated with DMSO or NSC13987 as in panel B. Cholesterol efflux was measured 14 days post-infection. Error bars show SEM.
# as §2, with “counting. Cholesterol efflux was calculated as the percentage of radioactivity in the media divided by the total amount measured in the cells and media.” for “counting.”
# HIV-1 ADA = HIV-1 ADA replication in monocyte-derived macrophages (RT activity in supernatant); type: cell-based
# Experimental: as §3, §4
# ABCA1 = ABCA1 abundance in the presence of Nef; type: cell-based
# [3] = molecular target: T3, cytoplasmic tail of CNX (CNX-CT) (Homo sapiens, UniProt P27824); assay: Surface plasmon resonance, immobilized calnexin cytoplasmic tail; type: binding; conditions: myristoylated Nef injected at 6.25-200 nM, 25° C.
# T3 construct: the C-terminal (cytoplasmic) domain of CNX (CNX-CT) were captured on CMS chips by amine coupling; His-tag (N); SUMO domain (N); made in house; host or cells: E. coli BL21 DE
# T3 sequence (P27824 503-592 limits assumed): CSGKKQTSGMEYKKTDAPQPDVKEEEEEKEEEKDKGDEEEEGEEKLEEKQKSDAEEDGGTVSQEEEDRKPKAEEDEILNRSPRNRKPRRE
# Experimental: (§5) Binding of myristoylated NefsF2 (33) to CNX and its cytoplasmic domain was analyzed using surface plasmon resonance (FIGS. 5B,C). CNX and CNX-CT were immobilized on microchip surfaces and myristoylated Nef was injected over the surface.
# Steps of full-length CL7-tagged calnexin (CNX-CL7) purification are shown in detail. Whole cell lysate (WCL) was centrifuged to remove cell debris, the supernatant (SN) was treated with 0.07% polyethylene-emine (PE) to precipitate DNA, the pellet (PL), which contained most of CNX protein, was washed with detergent-containing buffer to release CNX into solution, centrifuged and the resulting supernatant was loaded on Immunity protein 7 (Im7) column. […] ACNX—truncated CNX fragment; SUMO—SUMO domain; P(PSC), P(SUMOP)—cleavage sites for the PSC and SUMO proteases, respectively; H8—8-Histidine tag (SEQ ID NO: 2). In panels (B) and (C), surface plasmon resonance experiments were done in a Biacore T-200 by using a CMS chip. […] Lines representing actual data and a curve fit to a […] analyte binding model in BiaEvaluation software are shown.
# Surface Plasmon Resonance Experiments—Direct binding between purified recombinant proteins was evaluated by surface plasmon resonance technology utilizing a Biacore T-200 instrument at the Biacore Molecular Interaction Shared Resource of Georgetown University. Full length CNX and the C-terminal (cytoplasmic) domain of CNX (CNX-CT) were captured on CMS chips by amine coupling. Three surfaces of CM5 chip were activated by NHS/CDC (N-hydroxysuccinimide/1-ethyl-3-(3-dimethylaminopropyl)carbodiimide hydrochloride) for 720 sec. Flow cell 1 was left empty as a reference surface. Full length CNX and CNX-CT were diluted in 10 mM sodium acetate (pH 4.0) buffer at 1.8 μM and 10.6 μM, respectively, and captured on flow cell 3 and flow cell 2, at 3200 RU and 16600 RU, respectively. After protein capture, all 3 flow cells were inactivated by 720 sec injection of 1 M ethanolamine. […] The data was analyzed by BiaEvaluation software using the bivalent analyte model.
# calnexin (CNX) = molecular target: T4, calnexin (CNX) (Homo sapiens, UniProt P27824); assay: Surface plasmon resonance, immobilized full-length calnexin; type: binding; conditions: myristoylated Nef injected at 6.25-200 nM, 25° C.
# T4 construct: Full length CNX and the C-terminal (cytoplasmic) domain of CNX (CNX-CT) were captured on CMS chips by amine coupling; His-tag (H8) (N); made in house; host or cells: E. coli BL21 DE
# T4 sequence (P27824 21-592): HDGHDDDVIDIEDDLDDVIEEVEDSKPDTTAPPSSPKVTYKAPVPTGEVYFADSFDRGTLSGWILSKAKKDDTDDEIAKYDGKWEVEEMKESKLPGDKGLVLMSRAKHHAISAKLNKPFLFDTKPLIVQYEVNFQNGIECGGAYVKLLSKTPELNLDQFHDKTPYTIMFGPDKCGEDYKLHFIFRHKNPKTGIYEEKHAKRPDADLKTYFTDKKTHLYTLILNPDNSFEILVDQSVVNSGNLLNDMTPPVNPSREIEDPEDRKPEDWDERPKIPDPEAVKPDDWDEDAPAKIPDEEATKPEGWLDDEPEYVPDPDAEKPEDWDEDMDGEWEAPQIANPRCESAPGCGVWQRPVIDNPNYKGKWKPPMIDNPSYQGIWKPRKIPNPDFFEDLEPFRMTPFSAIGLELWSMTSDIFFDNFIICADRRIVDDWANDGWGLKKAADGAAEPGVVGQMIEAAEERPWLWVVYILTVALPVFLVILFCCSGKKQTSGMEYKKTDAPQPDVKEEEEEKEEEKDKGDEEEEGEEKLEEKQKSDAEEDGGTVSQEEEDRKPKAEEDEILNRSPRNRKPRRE
# Experimental: as §5
# Steps of full-length CL7-tagged calnexin (CNX-CL7) purification are shown in detail. Whole cell lysate (WCL) was centrifuged to remove cell debris, the supernatant (SN) was treated with 0.07% polyethylene-emine (PE) to precipitate DNA, the pellet (PL), which contained most of CNX protein, was washed with detergent-containing buffer to release CNX into solution, centrifuged and the resulting supernatant was loaded on Immunity protein 7 (Im7) column. […] ACNX—truncated CNX fragment; SUMO—SUMO domain; P(PSC), P(SUMOP)—cleavage sites for the PSC and SUMO proteases, respectively; H8—8-Histidine tag (SEQ ID NO: 2). In panels (B) and (C), surface plasmon resonance experiments were done in a Biacore T-200 by using a CMS chip. […]
# Surface Plasmon Resonance Experiments—Direct binding between purified recombinant proteins was evaluated by surface plasmon resonance technology utilizing a Biacore T-200 instrument at the Biacore Molecular Interaction Shared Resource of Georgetown University. […] The data was analyzed by BiaEvaluation software using the bivalent analyte model.
compound,measurement,setting,value
"N=C(Nc1cc2ccccc2c2ccccc12)Nc1cc2ccccc2c2ccccc12 [NSC 1758, 1,3-DI-9-Phenanthrylguanidine]",inhibition of co-immunoprecipitation of Nef and calnexin,Nef/CNX interaction; 4 μM,showed a trend towards inhibiting Nef/CNX binding but did not reach statistical significance
"O=C1c2ccccc2C(=O)c2c(Nc3ccc4c5c(cccc35)C(=O)c3ccccc3-4)cccc21 [NSC 13987, 1[(7-Oxo-7H-benz[de]anthracene-3-yl)amino] anthraquinone]",cholesterol efflux in Nef-transfected cells,[1],significantly increased; also recorded: restored cholesterol efflux impaired by Nef
same,effect on ABCA1/Nef interaction,ABCA1/Nef interaction,remained unaffected
same,cholesterol efflux from HIV-infected cells,[2],not significantly different from that of mock-infected cells
same,viral replication in the presence of the compound,"HIV-1 ADA; 5 μM added 3 days after infection, RT activity over 14 days, primary macrophages",reduced
same,inhibition of viral replication,"HIV-1 ADA; FIG. 7B, HIV-1 ADA in primary macrophages, 5 μM",~2 fold
same,inhibition of co-immunoprecipitation of Nef and calnexin,Nef/CNX interaction; 5 μM,prevented co-precipitation of CNX with Nef
same,inhibition at 5 µM,"Nef/CNX interaction; HEK-293T, read-out: inhibition of co-immunoprecipitation of Nef and calnexin",> 50%
same,Nef-mediated effect on ABCA1 abundance,ABCA1,reversed Nef-mediated effect on ABCA1 abundance
"O=C1c2ccccc2C(=O)c2c1ccc1c2[nH]c2ccccc21 [NSC 92938, 5H-Naphtho(2,3-a)carbazole-5,13(12H)-dione]",inhibition of co-immunoprecipitation of Nef and calnexin,Nef/CNX interaction; 5 μM,showed a trend towards inhibiting Nef/CNX binding but did not reach statistical significance
NefSF2: myristoylated HIV-1 Nef SF2 protein injected over immobilized calnexin in surface plasmon resonance,ka,[3],908300 M⁻¹ s⁻¹
same,kd,[3],0.008569 s⁻¹
same,Kd,"[3]; Biacore T-200, read-out: affinity (KD)",9.4 nM
same,ka,calnexin (CNX),133800 M⁻¹ s⁻¹
same,kd,calnexin (CNX),0.01192 s⁻¹
